Measurements reported in the supplement of paper PMC10627819.
Values after ≈ are worked out from the molar mass of the structure shown.

Experiments:
[1] = tested on: S. aureus DSM 20231; assay: fitness (endpoint OD595 vs no drug) (fraction); higher = more growth
How it was run: (§1)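 Plates with 384 wells were inoculated at OD595 0.01 using 30 µl of TSB, LB Lennox or CY, or 55 µl for S. pneumoniae. Incubation was at 37 °C, with OD595 measured every 30 min for 14 h. Fitness is the stationary-phase transition optical density over the robust mean of no-drug control wells, after first-reading background subtraction; it is capped at 1.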

[2] = tested on: S. aureus Newman; assay: as above
How it was run: as §1

[3] = tested on: S. pneumoniae D39V; assay: as above
How it was run: as §1

[4] = tested on: B. subtilis 168; assay: Bliss interaction score (quartile over a dose matrix) (fitness difference); higher = more antagonism (negative = synergy)
How it was run: (§2)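 Fitness was OD595 at entry into stationary phase divided by the plate's robust no-drug mean and capped at 1; single-drug fitness was inferred from combination data. The Bliss score is observed minus expected (product) fitness, summarised by quartiles over technical, biological and donor/recipient replicates.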

[5] = tested on: S. aureus DSM 20231; assay: as above
How it was run: as §2

[6] = tested on: S. aureus Newman; assay: as above
How it was run: as §2

[7] = tested on: S. pneumoniae D39V; assay: as above
How it was run: as §2

[8] = tested on: B. subtilis 168
[9] = tested on: S. aureus DSM 20231
[10] = tested on: S. aureus Newman
[11] = tested on: S. pneumoniae D39V
[12] = tested on: B. subtilis 168; assay: fitness (endpoint OD595 vs no drug) (fraction); higher = more growth
How it was run: as §1
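Wherever Bliss interaction score (quartile over a dose matrix) is given: first quartile when negative (synergy) and third quartile when positive (antagonism).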

CN[C@@H]1[C@H](O)[C@H](NC)[C@H]2O[C@@]3(O)C(=O)C[C@@H](C)O[C@H]3O[C@@H]2[C@H]1O [Spectinomycin] + CN[C@H](CC(C)C)C(=O)N[C@H]1C(=O)N[C@@H](CC(N)=O)C(=O)N[C@H]2C(=O)N[C@H]3C(=O)N[C@H](C(=O)N[C@H](C(=O)O)c4cc(O)cc(O)c4-c4cc3ccc4O)[C@H](O)c3ccc(c(Cl)c3)Oc3cc2cc(c3O[C@@H]2O[C@H](CO)[C@@H](O)[C@H](O)[C@H]2O[C@H]2C[C@](C)(N)[C@H](O)[C@H](C)O2)Oc2ccc(cc2Cl)[C@H]1O [Vancomycin]
fitness
Conditions | first compound 4 µg/mL | first compound 8 µg/mL | first compound 16 µg/mL
[1], partner 0.1875 µg/mL | 0.906 | 0.938 | 0.85
[1], partner 0.375 µg/mL | 0.898 | 0.893 | 0.774
[1], partner 0.75 µg/mL | ≥ 1 | 0.985 | 0.908
[2], partner 0.1875 µg/mL | 0.945 | 0.971 | 0.906
[2], partner 0.375 µg/mL | 0.916 | 0.979 | 0.921
[2], partner 0.75 µg/mL | 0.928 | 0.946 | 0.892
[3], partner 0.03125 µg/mL | 0.979 | 0.933 | 0.835
[3], partner 0.0625 µg/mL | 0.902 | 0.918 | 0.804
[3], partner 0.125 µg/mL | – | 0.878 | –

fitness, one replicate
Conditions | partner 0.1875 µg/mL | partner 0.25 µg/mL | partner 0.375 µg/mL | partner 0.5 µg/mL | partner 0.75 µg/mL
[1], first compound 32 µg/mL | 0.741 | – | 0.74 | – | 0.737
[1], first compound 64 µg/mL | 0.0522 | – | 0.0729 | – | 0.0868
[2], first compound 32 µg/mL | 0.636 | – | 0.623 | – | 0.613
[2], first compound 64 µg/mL | 0.119 | – | 0.071 | – | 0.0594
[3], first compound 4 µg/mL | – | 0.437 | – | 0.0734 | –
[3], first compound 8 µg/mL | – | 0.293 | – | 0.0189 | –

Conditions | Bliss interaction score
[4] | 0.0821
[5] | -0.059
[6] | 0.0699
[7] | -0.0797

CN[C@@H]1[C@H](O)[C@H](NC)[C@H]2O[C@@]3(O)C(=O)C[C@@H](C)O[C@H]3O[C@@H]2[C@H]1O [Spectinomycin] + Cn1nnc(-c2ccc(-c3ccc(N4C[C@H](CO)OC4=O)cc3F)cn2)n1 [Tedizolid]
fitness
Conditions | first compound 4 µg/mL | first compound 8 µg/mL | first compound 16 µg/mL
[1], partner 0.0625 µg/mL | 0.964 | 0.916 | 0.744
[1], partner 0.125 µg/mL | 0.657 | 0.678 | 0.641
[1], partner 0.25 µg/mL | 0.257 | 0.225 | 0.199
[2], partner 0.0625 µg/mL | 0.922 | 0.939 | –
[3], partner 0.03125 µg/mL | 0.87 | 0.914 | 0.78
[3], partner 0.0625 µg/mL | 0.888 | 0.955 | 0.807
[3], partner 0.125 µg/mL | 0.815 | 0.807 | 0.729

fitness, one replicate
Conditions | partner 0.0625 µg/mL | partner 0.125 µg/mL | partner 0.25 µg/mL | partner 0.5 µg/mL
[1], first compound 32 µg/mL | 0.406 | 0.202 | 0.0234 | –
[1], first compound 64 µg/mL | 0.0239 | 0.0268 | 0.0093 | –
[2], first compound 32 µg/mL | 0.101 | 0.0307 | 0.0315 | –
[2], first compound 64 µg/mL | 0.0254 | 0.023 | 0.0159 | –
[3], first compound 4 µg/mL | – | – | 0.73 | 0.362
[3], first compound 8 µg/mL | – | – | 0.724 | 0.416

Conditions | Bliss interaction score
[4] | -0.0466
[5] | 0.0654
[6] | -0.111
[7] | -0.0885

CN[C@@H]1[C@H](O[C@H]2[C@H](O[C@H]3[C@H](O)[C@@H](O)[C@H](N=C(N)N)[C@@H](O)[C@@H]3N=C(N)N)O[C@@H](C)[C@]2(O)C=O)O[C@@H](CO)[C@H](O)[C@H]1O [Streptomycin]
Conditions | MIC [µg/mL]
[8] | 8 (≈ 13.8 µM)
[9] | 8 (≈ 13.8 µM)
[10] | 8 (≈ 13.8 µM)
[11] | 8 (≈ 13.8 µM)

fitness
Conditions | 1 µg/mL | 2 µg/mL | 4 µg/mL | 8 µg/mL
[2] | 0.971 | 0.954 | 0.899 | 0.579
[3] | – | 0.932 | 0.943 | 0.914
[12] | – | 0.954 | 0.775 | 0.0378
